Activity calls are given as the source filed them. The calls are words filed in the database; no cut-off is given here.
Assays:
[1] = Toxicity in immunodeficient male NSG mouse xenografted with human Huh-7 cells assessed as morphological abnormalities in liver at 35 mg/kg, ip administered every 3 days for 24 days by H and E staining based analysis; type: organism-based; conditions: in vivo, 576 h, time 24 day
[2] = target: T1, von Hippel-Lindau disease tumor suppressor/WW domain-containing transcription regulator protein 1 (Homo sapiens) (UniProt P40337+Q9GZV5); assay: PROTAC activity at TAZ/VHL in human Huh-7 cells assessed as reduction in TAZ expression incubated for 24 hrs by Western blot analysis; type: cell-based; conditions: dose 5-20 µM
T1 sequence (P40337 whole entry, looked up, the tested form may be a part): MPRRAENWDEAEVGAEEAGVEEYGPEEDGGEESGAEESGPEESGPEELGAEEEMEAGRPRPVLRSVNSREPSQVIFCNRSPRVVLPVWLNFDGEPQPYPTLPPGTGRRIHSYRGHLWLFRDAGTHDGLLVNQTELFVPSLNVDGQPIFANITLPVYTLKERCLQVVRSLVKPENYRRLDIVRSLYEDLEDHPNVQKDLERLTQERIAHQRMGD
T1 sequence (Q9GZV5 whole entry, looked up, the tested form may be a part): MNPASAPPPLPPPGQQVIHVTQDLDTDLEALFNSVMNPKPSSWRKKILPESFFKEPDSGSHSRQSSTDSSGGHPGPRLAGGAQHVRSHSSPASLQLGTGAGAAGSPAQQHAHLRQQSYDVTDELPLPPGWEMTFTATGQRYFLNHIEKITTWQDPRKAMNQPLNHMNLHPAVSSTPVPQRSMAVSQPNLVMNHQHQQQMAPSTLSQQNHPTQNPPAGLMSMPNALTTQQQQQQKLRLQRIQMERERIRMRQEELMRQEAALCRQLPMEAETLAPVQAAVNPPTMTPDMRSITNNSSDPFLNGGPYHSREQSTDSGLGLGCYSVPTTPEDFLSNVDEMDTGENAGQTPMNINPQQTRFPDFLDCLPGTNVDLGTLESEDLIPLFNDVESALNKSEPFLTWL

[3] = Toxicity in immunodeficient male NSG mouse xenografted with human Huh-7 cells assessed as change in total bilirubin level in liver at 35 mg/kg, ip administered every 3 days for 24 days; type: organism-based; conditions: in vivo, 576 h, time 24 day
[4] = Half life in Sprague-Dawley rat at 35 mg/kg, ip measured upto 24 hrs by LC-MS/MS analysis; type: ADME, organism-based; conditions: in vivo
[5] = target: T1, von Hippel-Lindau disease tumor suppressor/WW domain-containing transcription regulator protein 1 (Homo sapiens); assay: PROTAC activity at TAZ/VHL in human Huh-7 cells assessed as induction of TAZ degradation at 5 to 20 uM incubated for 24 hrs by Western blot analysis; type: cell-based; conditions: dose 5-20 µM
Huh-7 [6] = assay: Antitumor activity against human Huh-7 cells xenografted in immunodeficient male NSG mouse assessed as inhibition of tumor growth at 35 mg/kg, ip administered for 3 days; type: functional, organism-based; conditions: time 3.0 day
[7] = MRT (0 to infinity) in Sprague-Dawley rat at 35 mg/kg, ip measured upto 24 hrs by LC-MS/MS analysis; type: ADME, organism-based; conditions: in vivo
[8] = Toxicity in immunodeficient male NSG mouse xenografted with human Huh-7 cells assessed as change in triglyceride content in liver at 35 mg/kg, ip administered every 3 days for 24 days; type: organism-based; conditions: in vivo, 576 h, time 24 day
[9] = target: T2, von Hippel-Lindau disease tumor suppressor/Transcriptional coactivator YAP1 (Homo sapiens, UniProt P40337+P46937); assay: PROTAC activity at YAP/VHL in human NCI-H226 cells assessed as reduction in CTGF expression at 5 uM incubated for 48 hrs by Western blot analysis; type: cell-based
Target sequence in this assay (P40337 whole entry, looked up): as the sequence (P40337 whole entry, looked up, the tested form may be a part) above
Target sequence in this assay (P46937 whole entry, looked up): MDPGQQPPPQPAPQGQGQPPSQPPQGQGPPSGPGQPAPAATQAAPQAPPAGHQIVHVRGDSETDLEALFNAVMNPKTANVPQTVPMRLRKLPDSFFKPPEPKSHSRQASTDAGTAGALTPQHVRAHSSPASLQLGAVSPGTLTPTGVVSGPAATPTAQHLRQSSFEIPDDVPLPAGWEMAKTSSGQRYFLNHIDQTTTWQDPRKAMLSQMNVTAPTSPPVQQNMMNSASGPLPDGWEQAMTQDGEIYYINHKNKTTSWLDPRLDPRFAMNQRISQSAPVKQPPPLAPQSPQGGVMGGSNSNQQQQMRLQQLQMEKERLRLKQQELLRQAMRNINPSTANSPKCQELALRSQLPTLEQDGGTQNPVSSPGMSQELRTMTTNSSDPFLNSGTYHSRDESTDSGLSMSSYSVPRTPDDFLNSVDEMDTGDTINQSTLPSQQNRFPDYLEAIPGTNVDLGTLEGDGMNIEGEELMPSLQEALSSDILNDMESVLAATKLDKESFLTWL

Huh-7 [10] = assay: Antiproliferative activity against human Huh-7 cells overexpressing YAP assessed as cell growth inhibition incubated for 4 days by CCK-8 assay; type: functional, cell-based; conditions: Huh-7, 96 h
Huh-7 [11] = assay: Antitumor activity against human Huh-7 cells xenografted in immunodeficient male NSG mouse assessed as tumor growth inhibition at 35 mg/kg, ip administered every 3 days for 24 days in presence of sorafenib; type: functional; conditions: Huh-7, 576 h, time 24 day, read-out: TGI
NCI-H226 [12] = assay: Antiproliferative activity against human NCI-H226 cells assessed as cell killing at 10 uM incubated for 3 days by CCK-8 assay; type: functional, cell-based; conditions: time 3.0 day
Huh-7 [13] = assay: Antiproliferative activity against human Huh-7 cells overexpressing YAP assessed as suppression of cell proliferation incubated for 4 days by CCK-8 assay; type: functional, cell-based; conditions: time 4.0 day
[14] = target: Transcriptional coactivator YAP1 (Homo sapiens) (UniProt P46937); assay: Inhibition of YAP nuclear localization in human Huh-7 cells assessed as decrease in mean YAP intensity incubated for 12 hrs by immunofluorescence based microscopic analysis; type: cell-based; conditions: dose <= 20.0 µM
Transcriptional coactivator YAP1 (Homo sapiens), sequence (P46937 whole entry): as the sequence (P46937 whole entry, looked up) above

[15] = target: T2, von Hippel-Lindau disease tumor suppressor/Transcriptional coactivator YAP1; assay: PROTAC activity at YAP/VHL in human NCI-H226 cells assessed as reduction in YAP level at 10 uM incubated for 48 hrs by Western blot analysis relative to control; type: cell-based; parameters: scale not given: the % may be the effect or the level left
Target sequence in this assay (P40337 whole entry, looked up): as the sequence (P40337 whole entry, looked up, the tested form may be a part) above
Target sequence in this assay (P46937 whole entry, looked up): as the sequence (P46937 whole entry, looked up) above

[16] = target: T2, von Hippel-Lindau disease tumor suppressor/Transcriptional coactivator YAP1; assay: PROTAC activity at YAP/VHL in human Huh-7 cells assessed as induction of YAP degradation at 20 uM incubated at 12 hrs by Western blot analysis; type: cell-based
Target sequence in this assay (P40337 whole entry, looked up): as the sequence (P40337 whole entry, looked up, the tested form may be a part) above
Target sequence in this assay (P46937 whole entry, looked up): as the sequence (P46937 whole entry, looked up) above

[17] = target: T2, von Hippel-Lindau disease tumor suppressor/Transcriptional coactivator YAP1; assay: PROTAC activity at YAP/VHL in human Huh-7 cells assessed as induction of YAP degradation at 10 uM measured for 24 hrs by Western blot analysis relative to control; type: cell-based
Target sequence in this assay (P40337 whole entry, looked up): as the sequence (P40337 whole entry, looked up, the tested form may be a part) above
Target sequence in this assay (P46937 whole entry, looked up): as the sequence (P46937 whole entry, looked up) above

NCI-H226 [18] = assay: Antiproliferative activity against NF2 deficient- human NCI-H226 cells assessed as cell growth inhibition incubated for 4 days by CCK-8 assay; type: functional, cell-based; conditions: NCI-H226, 96 h
[19] = AUClast in Sprague-Dawley rat at 35 mg/kg, ip measured upto 24 hrs by LC-MS/MS analysis; type: ADME, organism-based; conditions: in vivo
Huh-7 [20] = assay: Antitumor activity against human Huh-7 cells xenografted in immunodeficient male NSG mouse assessed as tumor growth inhibition at 35 mg/kg, ip administered every 3 days for 24 days; type: functional; conditions: Huh-7, 576 h, time 24 day, read-out: TGI
[21] = target: T2, von Hippel-Lindau disease tumor suppressor/Transcriptional coactivator YAP1; assay: PROTAC activity at YAP/VHL in human NCI-H226 cells assessed as reduction in CTGF expression incubated for 48 hrs by Western blot analysis; type: cell-based; conditions: dose 2.5-20 µM
Target sequence in this assay (P40337 whole entry, looked up): as the sequence (P40337 whole entry, looked up, the tested form may be a part) above
Target sequence in this assay (P46937 whole entry, looked up): as the sequence (P46937 whole entry, looked up) above

NCI-H226 [22] = assay: Antiproliferative activity against NF2 deficient- human NCI-H226 cells assessed as maximum cell growth inhibition incubated for 4 days by CCK-8 assay relative to control; type: functional; conditions: time 4 day
[23] = target: T2, von Hippel-Lindau disease tumor suppressor/Transcriptional coactivator YAP1; assay: PROTAC activity at YAP/VHL in human Huh-7 cells assessed as induction of YAP degradation at 20 uM measured for 24 hrs in presence of 4-(3,4-dimethoxyphenyl)-2-phenyl-5,7-dihydro-6H-benzo[b]pyrido[2,3-d]azepin-6-one by Western blot analysis; type: cell-based
Target sequence in this assay (P40337 whole entry, looked up): as the sequence (P40337 whole entry, looked up, the tested form may be a part) above
Target sequence in this assay (P46937 whole entry, looked up): as the sequence (P46937 whole entry, looked up) above

[24] = target: T2, von Hippel-Lindau disease tumor suppressor/Transcriptional coactivator YAP1; assay: PROTAC activity at YAP/VHL in human Huh-7 cells assessed as induction of YAP degradation incubated for 48 hrs by Western blot analysis; type: cell-based
Target sequence in this assay (P40337 whole entry): as the sequence (P40337 whole entry, looked up, the tested form may be a part) above
Target sequence in this assay (P46937 whole entry): as the sequence (P46937 whole entry, looked up) above

NCI-H2452 = assay: Antiproliferative activity against human NCI-H2452 cells expressing NF2 assessed as reduction in cell viability incubated for 4 days by CCK-8 assay; type: functional, cell-based; conditions: time 4.0 day
[25] = target: T2, von Hippel-Lindau disease tumor suppressor/Transcriptional coactivator YAP1; assay: PROTAC activity at YAP/VHL in human Huh-7 cells assessed as induction of YAP degradation at 20 uM measured for 24 hrs in presence of MG-132 by Western blot analysis; type: cell-based
[26] = Tmax in Sprague-Dawley rat at 35 mg/kg, ip measured upto 24 hrs by LC-MS/MS analysis; type: ADME, organism-based; conditions: in vivo
[27] = target: T2, von Hippel-Lindau disease tumor suppressor/Transcriptional coactivator YAP1; assay: PROTAC activity at YAP/VHL in human Huh-7 cells assessed as induction of YAP degradation at 20 uM incubated at 24 hrs by Western blot analysis; type: cell-based
Huh-7 [28] = assay: Antitumor activity against human Huh-7 cells xenografted in immunodeficient male NSG mouse assessed as reduction in CYR61 level at 35 mg/kg, ip administered every 3 days for 24 days by Western blot analysis; type: functional, organism-based; conditions: time 24.0 day
[29] = target: T2, von Hippel-Lindau disease tumor suppressor/Transcriptional coactivator YAP1; assay: PROTAC activity at YAP/VHL in human NCI-H226 cells assessed as induction of YAP degradation incubated for 48 hrs by Western blot analysis; type: cell-based
Target sequence in this assay (P40337 whole entry): as the sequence (P40337 whole entry, looked up, the tested form may be a part) above
Target sequence in this assay (P46937 whole entry): as the sequence (P46937 whole entry, looked up) above

[30] = Toxicity in immunodeficient male NSG mouse xenografted with human Huh-7 cells assessed as change in ALT level in liver at 35 mg/kg, ip administered every 3 days for 24 days; type: organism-based; conditions: in vivo, 576 h, time 24 day
[31] = target: T2, von Hippel-Lindau disease tumor suppressor/Transcriptional coactivator YAP1; assay: PROTAC activity at YAP/VHL in human Huh-7 cells assessed as suppression of CTGF expression at 10 to 20 uM measured for 24 hrs by Western blot analysis relative to control; type: cell-based; conditions: dose 10-20 µM
[32] = target: T2, von Hippel-Lindau disease tumor suppressor/Transcriptional coactivator YAP1; assay: PROTAC activity at YAP/VHL in human Huh-7 cells assessed as induction of YAP degradation at 20 uM measured for 24 hrs by Western blot analysis relative to control; type: cell-based
[33] = Toxicity in immunodeficient male NSG mouse xenografted with human Huh-7 cells assessed as change in body weight at 35 mg/kg, ip administered every 3 days for 24 days; type: organism-based; conditions: in vivo, 576 h, time 24 day

**Q.** Which results are given for COc1cc(-c2cc(-c3ccccc3)nc3c2CC(=O)Nc2ccccc2-3)ccc1OCCOCCOCCC(=O)N[C@H](C(=O)N1C[C@H](O)C[C@H]1C(=O)N[C@@H](C)c1ccc(-c2scnc2C)cc1)C(C)(C)C?
**A.** Activity [1]: Non-Toxic; Activity [2]: Dose-Dependent Effect; Activity [3]: Non-Toxic; half-life [4]: 13.3 h; Activity [5]: Active; Activity (Huh-7 [6]): Active; MRT inf [7]: 19.9 h; Activity [8]: Non-Toxic; Activity [9]: Active; IC50 (Huh-7 [10]): 2.9 µM; inhibition in vivo at 35 mg/kg (Huh-7 [11]): 93%; Activity (NCI-H226 [12]): inactive; Activity (Huh-7 [13]): Active; inhibition [14]: Dose-Dependent Effect; Activity [15]: 80%; Activity [16]: 10%; Activity [17]: 50%; IC50 (NCI-H226 [18]): 15.3 µM; AUC(0-t) at 24 h [19]: 1940 ng·h/mL; inhibition in vivo at 35 mg/kg (Huh-7 [20]): 82%; Activity [21]: Dose-Dependent Effect; inhibition (INH) (NCI-H226 [22]): 60%; Activity [23]: Active; DC50 [24]: 4.3 µM; Activity (NCI-H2452): inactive; Activity [25]: Active; Tmax [26]: 3.33 h; Activity [27]: 65%; Activity (Huh-7 [28]): Active; DC50 [29]: 8.2 µM; Activity [30]: Non-Toxic; Activity [31]: Active; Activity [32]: 78%; Activity [33]: Non-Toxic

Reference: ChEMBL document CHEMBL5584348, “Exploring Degradation of Intrinsically Disordered Protein Yes-Associated Protein Induced by Proteolysis TArgeting Chimeras” (J Med Chem, 2024)
